{"source": "patent EP3236920B1", "about": "“ANTIMICROBIAL PREPARATION COMPRISING BISPYRIDINIUM ALKANES, 1- OR 2-(C1 TO C24 ALKYL) GLYCEROL ETHER AND ALKANE-1,2-DIOLS” (Beiersdorf AG, priority 2014, dated 2016)", "key": {"Propionibakterium acnes [1]": {"tested_on": "Propionibakterium acnes", "assay": "Suspension test, antimicrobial efficacy (reduction factor of cell count vs control)", "format": "cell-based, P. acnes (DSM 1897)", "conditions": "after 24h at 37°C, anaerobic medium; cfu(Kontrolle)/cfu(Testsubstanz); A: 0,2 µg/ml TPI 2007; B: 250 µg/ml Decan-1,2-diol; C: 250 µg/ml Decan-1,2-diol + 0,2 µg/ml TPI 2007", "experimental": "Die antimikrobielle Wirksamkeit der erfindungsgemäßen dermatologischen und/oder kosmetischen Zubereitung gegen Propionibakterium acnes (P. acnes) wurde zum Vergleich mit verschiedenen Formulierungen untersucht.\nDazu wurde das Bakterium P. acnes (DSM 1897) aus einem nach EN 12353 angelegten Cryoröhrchen auf einer entsprechenden Agarplatte (Cost-Agar) ausgestrichen und bei 37°C 5 Tage unter anaeroben Bedingungen bebrütet.\nEine Impföse der Bakterien wurde zu 10mL anaerobem Medium gegeben und im Impedanzgerät mit dem Programm PR37NT unter anaeroben Bedingungen inkubiert. Anschließend wurde diese Bakteriensuspension auf eine OD (optische Dichte) von 0,3-0,5 eingestellt. Die eingestellte Bakteriensuspension wurde dann 1:10 mit anaerobem Medium verdünnt, um eine Keimzahl von ungefähr 5*10^6 zu gewährleisten. Diese Bakteriensuspension wurde anschließend für den Test eingesetzt.\nDer Suspensionstest wurde per Hand durchgeführt. Hierzu wurden 500µL der zu testenden Wirkstofflösungen bzw. im Falle der Kontrollen 500 µl anaerobem Medium in Mikroreaktionsgefäßen vorgelegt. Anschließend wurden 500 µl der Bakteriensuspension hinzugegeben und gemischt. Zum Zeitpunkt t0 wurde eine Probe aus den Kontrollen entnommen. Die Mikroreaktionsgefäße wurden nun im Thermoschüttler bei 37 °C inkubiert. […]"}, "Propionibakterium acnes [2]": {"tested_on": "Propionibakterium acnes", "conditions": "0,2% Decan-1,2-diol alone; cited from earlier work"}}, "data": [{"smiles": "CCCCCCCCC(O)CO", "note": "(centres unmarked) [Probe B, Decan-1,2-diol]", "values": [{"measurement": "Reduktionsfaktor", "setting": "Propionibakterium acnes [1]", "value": 1}, {"measurement": "antibakterielle Wirkung im Suspensionstest", "setting": "Propionibakterium acnes [2]", "value": "so gut wie keine antibakterielle Wirkung"}]}]}
